Data from patent publication US20230174454A1, “PROCESS OF SYNTHESIZING AND PURIFYING (3R)-HYDROXYBUTYL (3R)-HYDROXYBUTANOATE” (Genomatica, Inc., priority 2020, published 2023).

Experiments:
[1] = Miscibility with water; format: physicochemical
Text: In one specific embodiment, the compound of interest is (R)-3-hydroxybutyl (R)-3-hydroxybutanoate.

[2] = Study to determine the boiling point of (3R)-hydroxybutyl (3R)-hydroxybutyrate, with colour change on boiling; format: physicochemical
Protocol: A study to determine the boiling point of (3R)-hydroxybutyl (3R)-hydroxybutyrate was performed.

**Q.** With `C[C@@H](O)CCOC(=O)C[C@@H](C)O` [(3R)-hydroxybutyl (3R)-hydroxybutyrate, (R)-3-hydroxybutyl (R)-3-hydroxybutanoate] as the molecule, how does the miscibility with water ([1]; 50/50 (w/w) mixture of water/(R)-3-hydroxybutyl (R)-3-hydroxybutanoate) read?
**A.** The miscibility with water was “completely miscible with water”.

**Q.** And the miscibility with water ([1]; 60/40 (w/w) mixture of water/(R)-3-hydroxybutyl (R)-3-hydroxybutanoate)?
**A.** Its miscibility with water is “completely miscible with water”.

**Q.** What about the “Measured Boiling Point” value ([2]; Pressure 7 mbar) of the same molecule?
**A.** Its value is 155-159 °C.

**Q.** What about the “Measured Boiling Point” value ([2]; Pressure 15 mbar) of the same molecule?
**A.** The value was 165-169 °C.

**Q.** What about the “Measured Boiling Point” value ([2]; Pressure 30 mbar) of the same molecule?
**A.** Its value is 174-179 °C.

**Q.** What about the “Measured Boiling Point” value ([2]; Pressure 60 mbar) of the same molecule?
**A.** Its value is 186-191 °C.

**Q.** What about the “Measured Boiling Point” value ([2]; Pressure 80 mbar) of the same molecule?
**A.** Its value is 197-204 °C.

**Q.** What about the “Measured Boiling Point” value ([2]; Pressure 120 mbar) of the same molecule?
**A.** The value was 208-212 °C.

**Q.** What about the “Measured Boiling Point” value ([2]; Pressure 240 mbar) of the same molecule?
**A.** Its value is 215-219 °C.

**Q.** And the “Measured Boiling Point” value ([2]; Pressure 500 mbar)?
**A.** Its value is 224-229 °C.

**Q.** And the “Measured Boiling Point” value ([2]; Pressure 1000 mbar)?
**A.** Its value is 274-280 °C.

**Q.** And the “Color Change” value ([2]; boiling at 7 mbar)?
**A.** The value was “no color change after 2 h of boiling”.

**Q.** What about the “Color Change” value ([2]; boiling at 15 mbar) of the same molecule?
**A.** The value was “no color change after 2 h of boiling”.

**Q.** What about the “Color Change” value ([2]; boiling at 30 mbar) of the same molecule?
**A.** Its value is “no color change after 2 h of boiling”.

**Q.** What about the “Color Change” value ([2]; boiling at 60 mbar) of the same molecule?
**A.** Its value is “no color change after 2 h of boiling”.

**Q.** What about the “Color Change” value ([2]; boiling at 80 mbar) of the same molecule?
**A.** The value was “no color change after 2 h of boiling”.

**Q.** What about the “Color Change” value ([2]; boiling at 120 mbar) of the same molecule?
**A.** The value was “no color change after 1 h of boiling, very slight yellow tint is present after 1 h and 30 min of boiling”.

**Q.** What about the “Color Change” value ([2]; boiling at 240 mbar) of the same molecule?
**A.** Its value is “no color change after 1 h of boiling, very slight yellow tint is present after 1 h and 30 min of boiling”.

**Q.** What about the “Color Change” value ([2]; boiling at 500 mbar) of the same molecule?
**A.** The value was “no color change after 1 h of boiling, very slight yellow tint is present after 1 h and 30 min of boiling”.

**Q.** What about the “Color Change” value ([2]; boiling at 1000 mbar) of the same molecule?
**A.** Its value is “slight yellow tint is present after 1 hour of boiling”.
